The text below walks through data of ChEMBL document CHEMBL1926527, “Pharmacophore insights into rpoB gene mutations in Mycobacterium tuberculosis rifampicin resistant isolates” (2012).

In brackets after ≈: the same amount, converted by molar mass.

Format in all cases: functional
For assay [1], the system named is Mycobacterium tuberculosis. The experiment in a line: Antimycobacterial activity against Mycobacterium tuberculosis isolate 363 expressing rpoB Asp516Val mutant gene by resazurin microtiter assay. Background: Resazurin is reduced to fluorescent resorufin, in cell work by metabolically active cells.
The subject of assay [2] is Mycobacterium tuberculosis. The experiment in a line: Antimycobacterial activity against Mycobacterium tuberculosis isolate 80,014 expressing rpoB Arg529Lys and Leu530Met mutant gene by resazurin microtiter assay.
Assay [3] has as its system Mycobacterium tuberculosis. The experiment in a line: Antimycobacterial activity against Mycobacterium tuberculosis isolate 309 expressing rpoB His526Arg mutant gene by resazurin microtiter assay.
For assay [4], the system named is Mycobacterium tuberculosis. The assay is described as follows: Antimycobacterial activity against Mycobacterium tuberculosis isolate 352 expressing rpoB Asp516Leu and Phe514Phe double mutant gene by resazurin microtiter assay.
Assay [5] relates to Mycobacterium tuberculosis. The experiment in a line: Antimycobacterial activity against multidrug-resistant Mycobacterium tuberculosis clinical isolate obtained from tuberculosis patient infected in BALB/c mouse assessed as decrease in surface area affected by pneumonia in lung at 5 mg/kg, po administered daily for 2 months measured after 2 months. Set-up: scale not given: the % may be the effect or the level left.

Assay [6] concerns Mycobacterium tuberculosis. The assay is described as follows: Antimycobacterial activity against Mycobacterium tuberculosis isolate 364 expressing rpoB Ser522Leu mutant gene by resazurin microtiter assay.
Assay [7] relates to Mycobacterium tuberculosis. The experiment in a line: Antimycobacterial activity against Mycobacterium tuberculosis isolate 344 expressing rpoB Ser522Leu mutant gene by resazurin microtiter assay.
Assay [8] has as its system Mycobacterium tuberculosis. The assay is described as follows: Antimycobacterial activity against Mycobacterium tuberculosis isolate 311 expressing rpoB mutant gene by resazurin microtiter assay.
Assay [9] has as its system Mycobacterium tuberculosis. The experiment in a line: Antimycobacterial activity against multidrug-resistant Mycobacterium tuberculosis clinical isolate obtained from tuberculosis patient infected in BALB/c mouse assessed as decrease in bacterial burden in lung at 5 mg/kg, po administered daily for 2 months measured after 2 months. Set-up: scale not given: the % may be the effect or the level left.

For assay [10], the system named is Mycobacterium tuberculosis. The experiment in a line: Antimycobacterial activity against Mycobacterium tuberculosis isolate 343 expressing rpoB Asp516Val mutant gene by resazurin microtiter assay.
In assay [11] the test system is Mycobacterium tuberculosis. The assay is described as follows: Antimycobacterial activity against Mycobacterium tuberculosis isolate 349 expressing rpoB mutant gene by resazurin microtiter assay.
In assay [12] the test system is Mycobacterium tuberculosis. The assay is described as follows: Antimycobacterial activity against multidrug-resistant Mycobacterium tuberculosis clinical isolate obtained from tuberculosis patient infected in BALB/c mouse assessed as decrease in bacterial burden in lung at 5 mg/kg, po administered daily for 2 months measured after 1 month relative to untreated control.

Assay [13] concerns Mycobacterium tuberculosis. The assay is described as follows: Antimycobacterial activity against Mycobacterium tuberculosis isolate 308 expressing rpoB His526Asp mutant gene by resazurin microtiter assay.
In assay [14] the test system is Mycobacterium tuberculosis. The experiment in a line: Antimycobacterial activity against Mycobacterium tuberculosis isolate 307 expressing rpoB Ser531Leu mutant gene by resazurin microtiter assay.

Take `CO[C@H]1/C=C/O[C@@]2(C)Oc3c(C)c(O)c4c(c3C2=O)C2=NC3(CCN(CC(C)C)CC3)N(C(C)=O)C2=C(NC(=O)/C(C)=C\C=C\[C@H](C)[C@H](O)[C@@H](C)[C@@H](O)[C@@H](C)[C@H](OC(C)=O)[C@@H]1C)C4=O`: the MIC was found to be 0.06 µg/mL (≈ 0.0675 µM) in assay [1]; 0.25 µg/mL (≈ 0.281 µM) in assay [2]; 0.25 µg/mL (≈ 0.281 µM) in assay [3]; 1 µg/mL (≈ 1.12 µM) in assay [4]; 0.25 µg/mL (≈ 0.281 µM) in [6]; 0.06 µg/mL (≈ 0.0675 µM) in [7]. Also, the minimum inhibitory concentration (MIC) in [8] was over 2 µg/mL; in [10] it was over 2 µg/mL; in assay [11], 2 µg/mL (≈ 2.25 µM); in [13] it was over 2 µg/mL; in assay [14], 2 µg/mL (≈ 2.25 µM). Besides, the Activity in assay [5] was found to be 30%; in assay [9] it was 50%. Moreover, the “fold change (FC)” value in [12] was over 3.

On to `CO[C@H]1/C=C/O[C@@]2(C)Oc3c(C)c(O)c4c(c3C2=O)C2=NC3(CCN(CC(C)C)CC3)NC2=C(NC(=O)/C(C)=C\C=C\[C@H](C)[C@H](O)[C@@H](C)[C@@H](O)[C@@H](C)[C@H](OC(C)=O)[C@@H]1C)C4=O` [RIFABUTIN], for which the MIC in assay [1] was 0.06 µg/mL (≈ 0.0708 µM); in [2] it was 0.12 µg/mL (≈ 0.142 µM); in assay [3], 0.12 µg/mL (≈ 0.142 µM); in assay [4] it was under 0.06 µg/mL; in [6], 0.25 µg/mL (≈ 0.295 µM); in assay [7], 0.06 µg/mL (≈ 0.0708 µM). Also, the MIC in assay [8] is 2 µg/mL (≈ 2.36 µM); in [10], 1 µg/mL (≈ 1.18 µM); in assay [11] it was 1 µg/mL (≈ 1.18 µM); in assay [13] it was over 2 µg/mL; in [14], 2 µg/mL (≈ 2.36 µM).

`C=CCCCCCCCCC(=O)N1C2=C3NC(=O)/C(C)=C\C=C\[C@H](C)[C@H](O)[C@@H](C)[C@@H](O)[C@@H](C)[C@H](OC(C)=O)[C@H](C)[C@@H](OC)/C=C/O[C@@]4(C)Oc5c(C)c(O)c(c(c5C4=O)C2=NC12CCN(CC(C)C)CC2)C3=O`: the MIC in assay [1] amounted to 0.25 µg/mL (≈ 0.247 µM); in assay [2], 0.5 µg/mL (≈ 0.493 µM); in assay [3], 1 µg/mL (≈ 0.987 µM); in [4], 0.25 µg/mL (≈ 0.247 µM); in [6], 2 µg/mL (≈ 1.97 µM); in [7] it was 0.5 µg/mL (≈ 0.493 µM). The minimal inhibitory concentration (MIC) was over 2 µg/mL in assay [8]; 2 µg/mL (≈ 1.97 µM) in assay [10]; over 2 µg/mL in [11]; over 2 µg/mL in assay [13]; over 2 µg/mL in assay [14]. In addition, the Activity in [5] turned out to be 15%; in assay [9], 50%. In addition, the “fold change (FC)” value in [12] is over 3.

For the molecule `CO[C@H]1/C=C/O[C@@]2(C)Oc3c(C)c(O)c4c(c3[C@H]2O)C2=NC3(CCN(CC(C)C)CC3)NC2=C(NC(=O)/C(C)=C\C=C\[C@H](C)[C@H](O)[C@@H](C)[C@@H](O)[C@@H](C)[C@H](O)[C@@H]1C)C4=O`, the minimal inhibitory concentration (MIC) in assay [1] is over 2 µg/mL; in assay [2] it was 2 µg/mL (≈ 2.48 µM); in assay [3], 2 µg/mL (≈ 2.48 µM); in [4], 0.5 µg/mL (≈ 0.62 µM); in assay [6] it was over 2 µg/mL; in assay [7] it was over 2 µg/mL. The MIC is 2 µg/mL (≈ 2.48 µM) in assay [8]; over 2 µg/mL in [10]; over 2 µg/mL in [11]; over 2 µg/mL in assay [13]; over 2 µg/mL in assay [14].

Turning to `CO[C@H]1/C=C/O[C@@]2(C)Oc3c(C)c(O)c4c(c3C2=O)C2=NC3(CCN(CC(C)C)CC3)NC2=C(NC(=O)/C(C)=C\C=C\[C@H](C)[C@H](O)[C@@H](C)[C@@H](O)[C@@H](C)[C@H](O)[C@@H]1C)C4=O`, the minimum inhibitory concentration (MIC) was 1 µg/mL (≈ 1.24 µM) in assay [1]; 1 µg/mL (≈ 1.24 µM) in [2]; 0.25 µg/mL (≈ 0.311 µM) in assay [3]; 0.12 µg/mL (≈ 0.149 µM) in [4]; over 2 µg/mL in assay [6]; 2 µg/mL (≈ 2.48 µM) in assay [7]. The MIC in [8], in assay [10], in [11], in assay [13] and in [14] was over 2 µg/mL in each case.

Turning to `CCCCCCCCCCCCCCCC(=O)N1C2=C3NC(=O)/C(C)=C\C=C\[C@H](C)[C@H](O)[C@@H](C)[C@@H](O)[C@@H](C)[C@H](OC(C)=O)[C@H](C)[C@@H](OC)/C=C/O[C@@]4(C)Oc5c(C)c(O)c(c(c5C4=O)C2=NC12CCN(CC(C)C)CC2)C3=O`, the minimum inhibitory concentration (MIC) was over 2 µg/mL in assay [1]; 2 µg/mL (≈ 1.84 µM) in assay [2]; over 2 µg/mL in [3]; over 2 µg/mL in assay [4]; over 2 µg/mL in [6]; over 2 µg/mL in assay [7]. Further, the MIC in [8], in assay [10], in [11], in [13] and in assay [14] was over 2 µg/mL throughout.

For the molecule `CO[C@H]1/C=C/O[C@@]2(C)Oc3c(C)c(O)c4c(O)c(c(/C=N/N5CCN(C)CC5)c(O)c4c3C2=O)NC(=O)/C(C)=C\C=C\[C@H](C)[C@H](O)[C@@H](C)[C@@H](O)[C@@H](C)[C@H](OC(C)=O)[C@@H]1C` [RIFAMPIN], the minimum inhibitory concentration (MIC) in [1] was over 2 µg/mL; in assay [2] it was 2 µg/mL (≈ 2.43 µM); in [3] it was 0.06 µg/mL (≈ 0.0729 µM); in assay [4], over 2 µg/mL; in [6], over 2 µg/mL; in [7], over 2 µg/mL. The minimal inhibitory concentration (MIC) in [8], in assay [10], in assay [11], in [13] and in assay [14] was over 2 µg/mL each time.

As for `CO[C@H]1/C=C/O[C@@]2(C)Oc3c(C)c(O)c4c(c3[C@H]2O)C2=NC3(CCN(CC(C)C)CC3)N(C(C)=O)C2=C(NC(=O)/C(C)=C\C=C\[C@H](C)[C@H](O)[C@@H](C)[C@@H](O)[C@@H](C)[C@H](OC(C)=O)[C@@H]1C)C4=O`, the minimal inhibitory concentration (MIC) was 0.5 µg/mL (≈ 0.561 µM) in assay [1]; 0.5 µg/mL (≈ 0.561 µM) in [2]; 2 µg/mL (≈ 2.24 µM) in [3]; over 2 µg/mL in [4]; over 2 µg/mL in assay [6]; 0.5 µg/mL (≈ 0.561 µM) in [7]. Moreover, the minimum inhibitory concentration (MIC) in [8], in [10], in assay [11], in assay [13] and in assay [14] was over 2 µg/mL throughout.

In general, MIC refers to the smallest concentration in the dilution series that meets the test's criterion for growth inhibition.
